System: ICR(CD-1) mice
Assay: Reversal of Phencyclidine (PCP)-Induced Hyperlocomotor Activity in Mice
Assay type: in vivo, mouse
Settings: i.p.
From the text: This assay for Reversal of Phencyclidine (PCP)-Induced Hyperlocomotor Activity in Mice is run substantially as the Reversal of Phencyclidine (PCP)-Induced Hyperlocomotor Activity in Rats assay provided above, using mice instead of rats and with the changes noted below.
Motor activity is monitored by placing individual male, ICR(CD-1), (Harlan, Indianapolis, Ind.) mice in transparent, plastic shoe-box cages of the dimensions 45×25×20 cm, with 0.5 cm depth of wood chips as bedding, and plastic lid on top of the cage. Motor monitors (Kinder Scientific) consist of a rectangular rack of 12 photobeams arranged in an 8×4 formation, (or a high density grouping of 22 in a 15×7 pattern) at a height of 2.5 cm. The shoe box cage is placed inside of these racks, with the racks on a 3 foot high tabletop in an isolated room. A compound of the present invention is dosed (intraperitoneal route, non-prodrug) usually within a range of 0.3-30 mg/kg; though higher doses may be used, 30 minutes prior to a 7.5 mg/kg challenge dose of phencyclidine (PCP). On the test day, mice are placed in the test cage and allowed to acclimate for 45 minutes prior to PCP challenge; mice are monitored for an additional 60 minutes following PCP administration.
Power analyses have determined that 7-8 mice per group are needed to have appropriate statistical power for detecting treatment differences (power=0.8).

Compound: N[C@@]1(C(=O)O)C[C@@H](Sc2nnc[nH]2)[C@H]2[C@H](C(=O)O)[C@H]21 [Example 1, (1R,2S,4R,5R,6R)-2-Amino-4-(4H-1,2,4-triazol-3-ylsulfanyl)bicyclo[3.1.0]hexane-2,6-dicarboxylic acid]
- inhibition of PCP evoked ambulations (multiple dose experiment, 10 mg/kg dose): 81±5%
- inhibition of PCP evoked ambulations (single dose experiment of 10 mg/kg): 78±9%

Source: patent US8318184B2, “MGLU2 agonists” (Eli Lilly and Company, priority 2009, dated 2012)
